# Like-named read-outs stand apart in the source and are kept apart here.
# Legend:
# Assay in all cases: biochemical
# Parameters in all cases: KINOMEscan active site-directed competition binding assay (DiscoveRx), 456 kinases, per cent of control at 300 nM
# Conditions in all cases: read-out: Percent of Control (%)
# [1] = target: AKT2 (Homo sapiens, UniProt P31751)
# Summary of the method: (§1)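 Values reflect active-site competition binding from a screen of 456 kinases, with test compounds at a fixed 300 nmol/L.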
# [2] = target: BMPR1A (Homo sapiens, UniProt P36894)
# Summary of the method: as §1
# [3] = target: BUB1 (Homo sapiens, UniProt O43683)
# Summary of the method: as §1
# [4] = target: CAMK4 (Homo sapiens, UniProt Q16566)
# Summary of the method: as §1
# [5] = target: T1, CDC2L2 (Homo sapiens, UniProt Q9UQ88)
# T1 construct: gene CDK11A
# Summary of the method: as §1
# [6] = target: CSK (Homo sapiens, UniProt P41240)
# Summary of the method: as §1
# [7] = target: DAPK2 (Homo sapiens, UniProt Q9UIK4)
# Summary of the method: as §1
# [8] = target: EGFR(L747-T751del,Sins) (Homo sapiens, UniProt P00533, DEL747-750/T751S)
# Summary of the method: as §1
# [9] = target: INSR (Homo sapiens, UniProt P06213)
# Summary of the method: as §1
# [10] = target: IRAK4 (Homo sapiens, UniProt Q9NWZ3)
# Summary of the method: as §1
# [11] = target: LTK (Homo sapiens, UniProt P29376)
# Summary of the method: as §1
# [12] = target: MAK (Homo sapiens, UniProt P20794)
# Summary of the method: as §1
# [13] = target: MAP3K4 (Homo sapiens, UniProt Q9Y6R4)
# Summary of the method: as §1
# [14] = target: MAPKAPK2 (Homo sapiens, UniProt P49137)
# Summary of the method: as §1
# [15] = target: MET(M1250T) (Homo sapiens, UniProt P08581, M1250T)
# Summary of the method: as §1
# [16] = target: T2, NDR1 (Homo sapiens, UniProt Q15208)
# T2 construct: gene STK38
# Summary of the method: as §1
# [17] = target: NEK3 (Homo sapiens, UniProt P51956)
# Summary of the method: as §1
# [18] = target: T3, PYK2 (Homo sapiens, UniProt Q14289)
# T3 construct: gene PTK2B
# Summary of the method: as §1
# [19] = target: RET(V804L) (Homo sapiens, UniProt P07949, V804L)
# Summary of the method: as §1
# [20] = target: T4, RSK3(Kin.Dom.1-N-terminal) (Homo sapiens, UniProt Q15349)
# T4 construct: gene RPS6KA2; Kin.Dom.1-N-terminal
# Summary of the method: as §1
# [21] = target: T5, p38-beta (Homo sapiens, UniProt Q15759)
# T5 construct: gene MAPK11
# Summary of the method: as §1
# Chain of NEK3 (P51956 whole entry): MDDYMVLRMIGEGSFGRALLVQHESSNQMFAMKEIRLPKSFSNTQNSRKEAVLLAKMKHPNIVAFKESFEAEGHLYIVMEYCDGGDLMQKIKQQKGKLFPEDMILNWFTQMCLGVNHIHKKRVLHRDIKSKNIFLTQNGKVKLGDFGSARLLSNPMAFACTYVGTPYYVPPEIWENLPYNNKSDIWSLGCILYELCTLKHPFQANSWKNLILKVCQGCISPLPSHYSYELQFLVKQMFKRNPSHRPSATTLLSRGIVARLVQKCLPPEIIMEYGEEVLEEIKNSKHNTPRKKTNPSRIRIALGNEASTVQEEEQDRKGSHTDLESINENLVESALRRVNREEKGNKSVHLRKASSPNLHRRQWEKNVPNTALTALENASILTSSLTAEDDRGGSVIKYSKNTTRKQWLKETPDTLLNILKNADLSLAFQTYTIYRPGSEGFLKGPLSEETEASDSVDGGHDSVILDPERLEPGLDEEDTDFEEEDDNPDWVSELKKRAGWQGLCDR
# T3 sequence (Q14289 whole entry): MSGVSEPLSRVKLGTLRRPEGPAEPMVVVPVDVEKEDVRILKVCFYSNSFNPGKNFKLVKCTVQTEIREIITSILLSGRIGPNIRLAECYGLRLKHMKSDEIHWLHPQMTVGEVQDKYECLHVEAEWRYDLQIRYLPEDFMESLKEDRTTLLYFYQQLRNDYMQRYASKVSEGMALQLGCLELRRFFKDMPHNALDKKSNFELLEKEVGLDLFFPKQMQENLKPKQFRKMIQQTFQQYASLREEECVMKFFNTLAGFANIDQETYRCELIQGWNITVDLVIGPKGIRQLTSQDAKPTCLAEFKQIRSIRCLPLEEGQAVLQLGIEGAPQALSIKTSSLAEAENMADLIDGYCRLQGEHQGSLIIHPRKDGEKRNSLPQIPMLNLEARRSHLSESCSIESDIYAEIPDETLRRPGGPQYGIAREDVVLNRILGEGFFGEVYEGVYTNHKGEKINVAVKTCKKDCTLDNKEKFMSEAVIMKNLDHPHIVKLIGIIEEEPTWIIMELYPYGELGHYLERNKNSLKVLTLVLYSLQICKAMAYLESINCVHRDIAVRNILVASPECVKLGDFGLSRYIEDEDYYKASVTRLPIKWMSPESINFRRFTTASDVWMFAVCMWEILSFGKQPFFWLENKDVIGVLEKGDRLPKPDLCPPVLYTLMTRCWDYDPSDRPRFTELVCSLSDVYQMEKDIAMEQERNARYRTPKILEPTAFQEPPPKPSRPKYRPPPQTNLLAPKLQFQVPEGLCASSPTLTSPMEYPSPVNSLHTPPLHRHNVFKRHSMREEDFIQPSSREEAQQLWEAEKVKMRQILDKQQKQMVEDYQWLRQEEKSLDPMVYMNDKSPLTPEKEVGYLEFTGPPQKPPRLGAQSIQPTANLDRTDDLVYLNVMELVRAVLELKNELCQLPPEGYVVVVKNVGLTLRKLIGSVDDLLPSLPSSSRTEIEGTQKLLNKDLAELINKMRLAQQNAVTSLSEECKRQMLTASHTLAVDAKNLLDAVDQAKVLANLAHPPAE
# T5 sequence (Q15759 whole entry): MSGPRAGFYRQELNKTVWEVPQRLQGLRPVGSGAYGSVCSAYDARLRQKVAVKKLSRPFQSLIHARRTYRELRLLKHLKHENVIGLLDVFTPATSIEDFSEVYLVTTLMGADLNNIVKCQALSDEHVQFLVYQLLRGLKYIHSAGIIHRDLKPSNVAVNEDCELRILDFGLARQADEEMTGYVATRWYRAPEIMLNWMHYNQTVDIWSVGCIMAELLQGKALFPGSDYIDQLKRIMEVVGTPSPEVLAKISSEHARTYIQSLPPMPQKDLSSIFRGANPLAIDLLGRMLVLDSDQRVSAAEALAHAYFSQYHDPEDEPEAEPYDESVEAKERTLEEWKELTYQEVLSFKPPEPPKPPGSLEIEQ
# Chain of IRAK4 (Q9NWZ3 whole entry): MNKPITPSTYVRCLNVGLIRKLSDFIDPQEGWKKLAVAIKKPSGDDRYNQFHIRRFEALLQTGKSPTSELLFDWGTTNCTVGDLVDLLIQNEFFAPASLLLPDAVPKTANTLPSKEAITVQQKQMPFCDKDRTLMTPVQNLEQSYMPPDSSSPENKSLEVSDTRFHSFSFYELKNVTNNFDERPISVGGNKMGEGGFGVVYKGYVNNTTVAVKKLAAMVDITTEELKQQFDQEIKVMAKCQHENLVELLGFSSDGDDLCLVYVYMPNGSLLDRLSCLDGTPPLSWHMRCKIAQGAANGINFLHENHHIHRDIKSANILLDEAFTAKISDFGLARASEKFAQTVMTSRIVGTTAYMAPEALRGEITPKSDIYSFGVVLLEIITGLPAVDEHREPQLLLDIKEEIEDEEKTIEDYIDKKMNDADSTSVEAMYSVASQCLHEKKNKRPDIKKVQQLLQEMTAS
# T4 sequence (Q15349 whole entry): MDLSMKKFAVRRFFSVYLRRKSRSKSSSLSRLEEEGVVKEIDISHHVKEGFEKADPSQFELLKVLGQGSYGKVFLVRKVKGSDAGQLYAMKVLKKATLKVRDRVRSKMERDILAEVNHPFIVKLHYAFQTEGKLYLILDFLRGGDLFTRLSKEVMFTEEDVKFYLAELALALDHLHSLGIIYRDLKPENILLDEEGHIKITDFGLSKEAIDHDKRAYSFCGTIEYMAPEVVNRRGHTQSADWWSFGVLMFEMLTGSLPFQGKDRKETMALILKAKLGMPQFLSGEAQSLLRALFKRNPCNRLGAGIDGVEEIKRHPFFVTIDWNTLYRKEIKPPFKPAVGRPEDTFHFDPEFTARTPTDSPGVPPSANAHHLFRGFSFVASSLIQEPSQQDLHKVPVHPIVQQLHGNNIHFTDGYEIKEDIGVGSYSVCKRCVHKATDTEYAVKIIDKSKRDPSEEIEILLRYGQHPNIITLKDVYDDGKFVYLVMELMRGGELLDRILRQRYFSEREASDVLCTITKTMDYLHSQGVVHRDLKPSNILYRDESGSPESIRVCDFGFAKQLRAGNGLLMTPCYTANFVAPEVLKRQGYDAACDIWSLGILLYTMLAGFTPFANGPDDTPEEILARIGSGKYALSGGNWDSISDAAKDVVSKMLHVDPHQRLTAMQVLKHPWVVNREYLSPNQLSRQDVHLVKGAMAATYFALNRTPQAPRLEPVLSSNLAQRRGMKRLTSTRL
# Chain of AKT2 (P31751 whole entry): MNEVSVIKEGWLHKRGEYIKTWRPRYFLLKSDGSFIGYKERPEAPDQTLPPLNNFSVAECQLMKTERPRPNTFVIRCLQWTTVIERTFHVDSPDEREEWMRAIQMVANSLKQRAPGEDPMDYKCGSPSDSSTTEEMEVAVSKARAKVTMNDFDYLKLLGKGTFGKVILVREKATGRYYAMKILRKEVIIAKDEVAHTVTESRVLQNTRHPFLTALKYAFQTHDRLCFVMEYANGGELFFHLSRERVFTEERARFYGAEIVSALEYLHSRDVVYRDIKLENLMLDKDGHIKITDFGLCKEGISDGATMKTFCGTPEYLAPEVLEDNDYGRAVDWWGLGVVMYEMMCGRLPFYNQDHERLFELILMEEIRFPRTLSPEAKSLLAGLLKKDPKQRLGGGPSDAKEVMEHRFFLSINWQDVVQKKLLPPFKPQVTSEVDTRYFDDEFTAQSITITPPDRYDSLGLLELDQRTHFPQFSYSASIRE
# T1 sequence (Q9UQ88 whole entry): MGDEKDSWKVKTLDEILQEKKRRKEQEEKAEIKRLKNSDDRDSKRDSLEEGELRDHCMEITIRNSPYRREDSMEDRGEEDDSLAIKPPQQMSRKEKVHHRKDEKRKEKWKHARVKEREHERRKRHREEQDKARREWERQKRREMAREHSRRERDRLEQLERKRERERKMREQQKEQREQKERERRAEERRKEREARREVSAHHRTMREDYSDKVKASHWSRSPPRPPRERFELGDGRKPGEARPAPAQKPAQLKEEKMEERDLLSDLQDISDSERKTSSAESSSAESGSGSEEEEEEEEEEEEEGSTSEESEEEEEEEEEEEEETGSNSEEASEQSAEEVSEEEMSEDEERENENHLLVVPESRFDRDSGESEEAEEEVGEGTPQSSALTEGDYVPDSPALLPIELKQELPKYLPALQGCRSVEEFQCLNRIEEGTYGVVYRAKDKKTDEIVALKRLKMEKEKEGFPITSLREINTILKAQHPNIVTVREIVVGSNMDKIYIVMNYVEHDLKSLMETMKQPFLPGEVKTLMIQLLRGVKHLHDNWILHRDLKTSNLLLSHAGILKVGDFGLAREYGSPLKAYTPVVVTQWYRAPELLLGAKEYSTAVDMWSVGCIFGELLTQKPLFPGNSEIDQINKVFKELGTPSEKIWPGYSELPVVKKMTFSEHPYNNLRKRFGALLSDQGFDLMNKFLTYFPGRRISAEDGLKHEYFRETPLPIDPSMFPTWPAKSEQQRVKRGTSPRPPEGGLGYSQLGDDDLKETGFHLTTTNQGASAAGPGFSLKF
# Chain of MAK (P20794 whole entry): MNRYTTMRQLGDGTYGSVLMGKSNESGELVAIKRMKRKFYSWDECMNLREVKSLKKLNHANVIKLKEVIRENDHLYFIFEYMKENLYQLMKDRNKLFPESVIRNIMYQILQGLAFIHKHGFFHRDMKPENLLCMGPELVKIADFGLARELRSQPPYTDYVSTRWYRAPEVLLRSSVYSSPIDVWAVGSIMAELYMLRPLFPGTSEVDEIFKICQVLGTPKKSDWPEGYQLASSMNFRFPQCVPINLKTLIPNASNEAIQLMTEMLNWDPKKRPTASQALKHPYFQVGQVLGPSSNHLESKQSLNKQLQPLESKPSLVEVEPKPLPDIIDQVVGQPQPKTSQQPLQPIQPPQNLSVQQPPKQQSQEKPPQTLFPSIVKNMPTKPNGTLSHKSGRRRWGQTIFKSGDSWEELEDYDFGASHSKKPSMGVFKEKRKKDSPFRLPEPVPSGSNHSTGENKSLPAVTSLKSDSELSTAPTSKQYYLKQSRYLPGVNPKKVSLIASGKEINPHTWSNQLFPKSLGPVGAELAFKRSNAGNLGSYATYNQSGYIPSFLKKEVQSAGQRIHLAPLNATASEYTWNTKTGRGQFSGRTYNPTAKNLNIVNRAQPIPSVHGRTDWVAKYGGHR
compound,measurement,setting,value
"O=C(/C=C/c1cnccc1-c1ccc(F)cc1)Nc1ccc(CCc2nnco2)cc1 [T-418, (2E)-3-(4-(4-fluorophenyl)pyridin-3-yl)-N-(4-(2-(1,3,4-oxadiazol-2-yl)ethyl)phenyl)acrylamide]",remaining binding at 0.3 µM,[1]; sheet T-418,100%
same,remaining binding at 0.3 µM,[2]; sheet T-418,79%
same,remaining binding at 0.3 µM,[3]; sheet T-418,100%
same,remaining binding at 0.3 µM,[4]; sheet T-418,78%
same,remaining binding at 0.3 µM,[5]; sheet T-418,100%
same,remaining binding at 0.3 µM,[6]; sheet T-418,86%
same,remaining binding at 0.3 µM,[7]; sheet T-418,87%
same,remaining binding at 0.3 µM,[8]; sheet T-418,100%
same,remaining binding at 0.3 µM,[9]; sheet T-418,69%
same,remaining binding at 0.3 µM,[10]; sheet T-418,100%
same,remaining binding at 0.3 µM,[11]; sheet T-418,100%
same,remaining binding at 0.3 µM,[12]; sheet T-418,100%
same,remaining binding at 0.3 µM,[13]; sheet T-418,68%
same,remaining binding at 0.3 µM,[14]; sheet T-418,100%
same,remaining binding at 0.3 µM,[15]; sheet T-418,97%
same,remaining binding at 0.3 µM,[16]; sheet T-418,46%
same,remaining binding at 0.3 µM,[17]; sheet T-418,100%
same,remaining binding at 0.3 µM,[18]; sheet T-418,88%
same,remaining binding at 0.3 µM,[19]; sheet T-418,81%
same,remaining binding at 0.3 µM,[20]; sheet T-418,79%
same,remaining binding at 0.3 µM,[21]; sheet T-418,77%
"Cc1ncccc1Oc1sc(C(N)=O)c2c1-c1c(cnn1C)CC2 [T-474, 1-methyl-8-((2-methylpyridin-3-yl)oxy)-4,5-dihydro-1H-thieno[3,4-g]indazole-6-carboxamide]",remaining binding at 0.3 µM,[1],100%
same,remaining binding at 0.3 µM,[2],100%
same,remaining binding at 0.3 µM,[3],100%
same,remaining binding at 0.3 µM,[4],100%
same,remaining binding at 0.3 µM,[5],98%
same,remaining binding at 0.3 µM,[6],86%
same,remaining binding at 0.3 µM,[7],100%
same,remaining binding at 0.3 µM,[8],87%
same,remaining binding at 0.3 µM,[9],66%
same,remaining binding at 0.3 µM,[10],100%
same,remaining binding at 0.3 µM,[11],100%
same,remaining binding at 0.3 µM,[12],98%
same,remaining binding at 0.3 µM,[13],72%
same,remaining binding at 0.3 µM,[14],100%
same,remaining binding at 0.3 µM,[15],100%
same,remaining binding at 0.3 µM,[16],39%
same,remaining binding at 0.3 µM,[17],100%
same,remaining binding at 0.3 µM,[18],100%
same,remaining binding at 0.3 µM,[19],94%
same,remaining binding at 0.3 µM,[20],100%
same,remaining binding at 0.3 µM,[21],64%

# From paper PMC5862592, “CDK8/19 inhibition induces premature G1/S transition and ATR-dependent cell death in prostate cancer cells” (Oncotarget, 2018)
